Test results taken from patent US10508120B2, “TYK2 inhibitors and uses thereof” (Nimbus Lakshmi, Inc., priority 2017, dated 2019).
Like-named read-outs stand apart in the source and are kept apart here.

Tests used:
[1] = target: human TYK2 (JH2domain-pseudokinase) (Homo sapiens (Human), UniProt P29597); assay: TYK2 JH2 Domain Binding Assay (KINOMEscan)
Procedure, shortened: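 Competition binding of an NFkB-DBD fusion of human TYK2 JH2 (G556–D888), expressed in HEK293 and used as crude extract at <0.1 nM, against immobilized ligand beads; 1 h at room temperature in PBS/Tween/DTT/BSA buffer, 0.9% DMSO.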

Tyk2 kinase domain (DH1) = Tyk2 kinase domain (DH1) (Homo sapiens (Human), UniProt P29597); assay: Tyk2 Radioactive Kinase Assay; format: biochemical; conditions: for inhibition at 10 µM: read-out: Tyk2 JH1% Inhibition @ 10 μM
Tyk2 kinase domain (DH1), sequence (P29597 897-1176): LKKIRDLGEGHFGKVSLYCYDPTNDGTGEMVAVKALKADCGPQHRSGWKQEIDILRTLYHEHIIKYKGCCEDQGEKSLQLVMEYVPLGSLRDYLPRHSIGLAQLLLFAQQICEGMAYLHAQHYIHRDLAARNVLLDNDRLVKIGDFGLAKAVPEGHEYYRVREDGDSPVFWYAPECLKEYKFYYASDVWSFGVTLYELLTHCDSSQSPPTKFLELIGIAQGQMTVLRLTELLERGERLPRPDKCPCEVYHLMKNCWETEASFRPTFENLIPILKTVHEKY
Procedure, shortened: (§1)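 Values are single-concentration percent inhibition figures. They were obtained with 10 μM compound in a radioactivity-based kinase assay run separately on each enzyme.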

JAK2 kinase domain (JH1) = JAK2 kinase domain (JH1) (Homo sapiens (Human), UniProt O60674); assay: JAK2 Radioactive Kinase Assay; format: biochemical; conditions: for inhibition at 10 µM: read-out: JAK2 JH1% Inhibition @ 10 μM
JAK2 kinase domain (JH1), sequence (O60674 849-1124): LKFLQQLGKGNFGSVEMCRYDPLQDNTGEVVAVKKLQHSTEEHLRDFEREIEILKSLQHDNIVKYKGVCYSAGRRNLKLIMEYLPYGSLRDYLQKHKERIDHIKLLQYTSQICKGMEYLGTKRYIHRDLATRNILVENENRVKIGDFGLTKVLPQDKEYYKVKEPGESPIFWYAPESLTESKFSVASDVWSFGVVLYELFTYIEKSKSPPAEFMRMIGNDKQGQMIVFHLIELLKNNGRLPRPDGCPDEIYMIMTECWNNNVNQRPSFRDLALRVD
Procedure, shortened: as §1

human TYK2 (JH2domain-pseudokinase), sequence (P29597 556-888): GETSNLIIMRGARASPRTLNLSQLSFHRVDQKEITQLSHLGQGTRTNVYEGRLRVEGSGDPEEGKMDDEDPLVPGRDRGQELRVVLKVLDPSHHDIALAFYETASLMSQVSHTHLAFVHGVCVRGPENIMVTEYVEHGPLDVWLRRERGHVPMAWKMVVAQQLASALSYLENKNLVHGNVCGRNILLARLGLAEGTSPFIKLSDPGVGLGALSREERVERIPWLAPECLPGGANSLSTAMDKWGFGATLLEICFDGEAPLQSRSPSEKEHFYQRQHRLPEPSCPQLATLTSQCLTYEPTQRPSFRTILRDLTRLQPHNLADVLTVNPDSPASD

Row | Structure (SMILES) | Kd [1] [pM] | inhibition at 10 µM (Tyk2 kinase domain (DH1); compound at 10 μM, ATP 10 μM) [%] | inhibition at 10 µM (JAK2 kinase domain (JH1); compound at 10 μM, ATP 10 μM) [%] | inhibition at 10 µM (Tyk2 kinase domain (DH1); 10 μM compound, 10 μM ATP) [%] | inhibition at 10 µM (JAK2 kinase domain (JH1); 10 μM compound, 10 μM ATP) [%] | Tyk2 JH1% Inhibition @ 10 μM (Tyk2 kinase domain (DH1); compound at 10 μM, ATP 10 μM) | JAK2 JH1% Inhibition @ 10 μM (JAK2 kinase domain (JH1); compound at 10 μM, ATP 10 μM)
1 | Nc1cc(Nc2cccc(N3CCCC3=O)n2)nc2c(C(=O)NC3COC3)cnn12 [I-101, 7-amino-N-(oxetan-3-yl)-5-((6-(2-oxopyrrolidin-1-yl)pyridin-2-yl)amino)pyrazolo[1,5-a]pyrimidine-3-carboxamide] | > 10000 | < 50 | < 50 | – | – | – | –
2 | CNc1cc(Nc2cccnc2OC(F)(F)F)nc2c(C(=O)NC3CC3)cnn12 [I-90] | 200 to 1000 | < 50 | < 50 | – | – | – | –
3 | CNc1cc(Nc2cccn(C3CCN(C)CC3)c2=O)nc2c(C(=O)NCC(C)(C)CO)cnn12 [I-542] | 200 to 1000 | < 50 | < 50 | – | – | – | –
4 | CNc1cc(Nc2cccn([C@@H]3CCC[C@@H](O)C3)c2=O)nc2c(C(=O)NC3CC3)cnn12 [I-822] | < 200 | – | – | < 50 | < 50 | – | –
5 | CNc1cc(Nc2cccnc2C(C)(F)F)nc2c(C(=O)NCC(C)(C)CO)cnn12 [I-355] | 200 to 1000 | < 50 | < 50 | – | – | – | –
6 | CNc1cc(Nc2cccn(C3CCOCC3)c2=O)nc2c(C(=O)N[C@H]3CC[C@@H]3O)cnn12 [I-528] | < 200 | < 50 | < 50 | – | – | – | –
7 | CNc1cc(Nc2cccn(C3CCN(CC(F)F)CC3)c2=O)nc2c(C(=O)NC3CC3)cnn12 [I-191] | < 200 | < 50 | < 50 | – | – | – | –
8 | CNc1cc(Nc2cccn([C@H]3CCC[C@H](OC)C3)c2=O)nc2c(C(=O)N[C@@H]3C[C@@H]3F)cnn12 [I-882] | < 200 | – | – | < 50 | < 50 | – | –
9 | CNc1cc(Nc2cccn([C@H]3CCOC3)c2=O)nc2c(C(=O)NC3CC3)cnn12 [I-203] | < 200 | < 50 | < 50 | – | – | – | –
10 | CNc1cc(Nc2cccnc2OC2CC2)nc2c(C(=O)N[C@H]3C[C@H](O)C3)cnn12 [I-320, 5-((2-cyclopropoxypyridin-3-yl)amino)-N-((1r, 3r)-3-hydroxycyclobutyl)-7-(methylamino)pyrazolo[1,5-a]pyrimidine-3-carboxamide] | < 200 | < 50 | 50 to 70 | – | – | – | –
11 | CNc1cc(Nc2cccn([C@@H]3CCC[C@@H](OC)C3)c2=O)nc2c(C(=O)NC3CC3)cnn12 [I-1026] | < 200 | – | – | < 50 | < 50 | – | –
12 | CNc1cc(Nc2cccn([C@H]3CC[C@H](OC)CC3)c2=O)nc2c(C(=O)NCC(C)CO)cnn12 (stereo partly drawn) [I-613] | < 200 | < 50 | < 50 | – | – | – | –
13 | CNc1cc(Nc2cccn([C@@H]3CCC[C@H](OC)C3)c2=O)nc2c(C(=O)N[C@@H]3CC[C@H]3O)cnn12 [I-1054] | < 200 | – | – | < 50 | < 50 | – | –
14 | CNc1cc(Nc2cccn([C@H]3CCN(CCF)C3)c2=O)nc2c(C(=O)NC3CC3)cnn12 [I-932] | 200 to 1000 | – | – | < 50 | < 50 | – | –
15 | CNc1cc(-c2nn(C(C)C)c3ncccc23)nc2c(C(=O)N[C@H]3C[C@H]3F)cnn12 [I-451] | < 200 | < 50 | < 50 | – | – | – | –
16 | CNc1cc(Nc2cccn([C@H]3C[C@@H]3F)c2=O)nc2c(C(=O)NC3CC3)cnn12 [I-867] | < 200 | – | – | < 50 | < 50 | – | –
17 | CNc1cc(Nc2cccn([C@H]3CC[C@H](O)CC3)c2=O)nc2c(C(=O)N[C@H]3C[C@H]3F)cnn12 [I-166] | < 200 | < 50 | < 50 | – | – | – | –

Continued, in another order:

Row | Kd [1] [pM] | inhibition at 10 µM (Tyk2 kinase domain (DH1); compound at 10 μM, ATP 10 μM) [%] | inhibition at 10 µM (JAK2 kinase domain (JH1); compound at 10 μM, ATP 10 μM) [%] | inhibition at 10 µM (Tyk2 kinase domain (DH1); 10 μM compound, 10 μM ATP) [%] | inhibition at 10 µM (JAK2 kinase domain (JH1); 10 μM compound, 10 μM ATP) [%] | Structure (SMILES) | Tyk2 JH1% Inhibition @ 10 μM (Tyk2 kinase domain (DH1); compound at 10 μM, ATP 10 μM) | JAK2 JH1% Inhibition @ 10 μM (JAK2 kinase domain (JH1); compound at 10 μM, ATP 10 μM)
18 | < 200 | < 50 | < 50 | – | – | CNc1cc(-c2cn(C(C)C)c3ncccc23)nc2c(C(=O)N[C@H]3C[C@@H]3O)cnn12 (stereo in doubt) [I-733, N-((1 S,2S)-2-hydroxycyclopropyl)-5-(1-isopropyl-1H-pyrrolo[2,3-b]pyridin-3-yl)-7-(methylamino)pyrazolo[1,5-a]pyrimidine-3-carboxamide] | – | –
19 | < 200 | – | – | < 50 | < 50 | CNc1cc(Nc2cccn(-c3cccc(F)c3)c2=O)nc2c(C(=O)NC[C@@H](C)CO)cnn12 [I-1033] | – | –
20 | < 200 | < 50 | < 50 | – | – | CNc1cc(Nc2cccc(N3CCCC3=O)n2)nc2c(C(=O)N[C@@H]3CC[C@@H]3O)cnn12 [I-679] | – | –
21 | < 200 | < 50 | < 50 | – | – | CNc1cc(Nc2cccn(-c3cnc(C(C)(C)O)cn3)c2=O)nc2c(C(N)=O)cnn12 [I-63] | – | –
22 | 200 to 1000 | < 50 | < 50 | – | – | CNc1cc(Nc2cc(C)cnc2OC(C)C)nc2c(C(=O)NC3CC3)cnn12 [I-212] | – | –
23 | < 200 | < 50 | < 50 | – | – | CNc1cc(Nc2cccc(N3CCOCC3)c2Cl)nc2c(C(N)=O)cnn12 [I-18] | – | –
24 | < 200 | – | – | – | – | CNc1cc(Nc2cccn([C@H]3CCCOC3)c2=O)nc2c(C(=O)N[C@H]3CC[C@H](O)C3)cnn12 [I-728] | A (percent inhibition at 10 μM lower than 50) | A (percent inhibition at 10 μM lower than 50)
25 | < 200 | < 50 | < 50 | – | – | CNc1cc(Nc2cccnc2O[C@H]2CC[C@H](OC)CC2)nc2c(C(=O)N[C@H]3C[C@H]3F)cnn12 [I-249] | – | –
26 | < 200 | < 50 | < 50 | – | – | CNc1cc(Nc2cccn(-c3cnc(C)o3)c2=O)nc2c(C(=O)NC3CC3)cnn12 [I-717] | – | –
27 | 200 to 1000 | < 50 | < 50 | – | – | CNc1cc(-c2nn(CCN3CCCCC3)c3ncccc23)nc2c(C(=O)N[C@H]3C[C@H]3F)cnn12 [I-458] | – | –
28 | 1000 to 10000 | < 50 | < 50 | – | – | CNc1cc(Nc2cccnc2OC)nc2c(C(=O)N[C@@H]3COC[C@@H]3O)cnn12 [I-614] | – | –
29 | 1000 to 10000 | < 50 | < 50 | – | – | CNc1cc(Nc2cccc([C@@H]3CCCCO3)n2)nc2c(C(=O)N[C@H]3CC[C@H]3O)cnn12 [I-645] | – | –
30 | 1000 to 10000 | – | – | – | – | CNc1cc(Nc2cccc([C@H]3CCCOC3)n2)nc2c(C(=O)N[C@H]3COC[C@H]3O)cnn12 [I-774] | A (percent inhibition at 10 μM lower than 50) | A (percent inhibition at 10 μM lower than 50)
31 | < 200 | – | – | < 50 | < 50 | CNc1cc(Nc2cccn([C@H]3CCN(CCC#N)C3)c2=O)nc2c(C(=O)N[C@@H]3C[C@@H]3F)cnn12 [I-986] | – | –
32 | 200 to 1000 | < 50 | < 50 | – | – | CNc1cc(-n2cc(N3CCCC3)c3ncccc32)nc2c(C(=O)N[C@@H]3C[C@@H]3F)cnn12 [I-553] | – | –
33 | 200 to 1000 | – | – | < 50 | < 50 | CNc1cc(-c2cn(CCN3CCOCC3)c3ncccc23)nc2c(C(=O)N[C@H]3CC[C@@H]3O)cnn12 [I-836] | – | –
34 | 1000 to 10000 | < 50 | < 50 | – | – | CNc1cc(Nc2cccnc2OC)nc2c(C(=O)NCCC3CCCO3)cnn12 (stereo not drawn) [I-418, 5-((2-methoxypyridin-3-yl)amino)-7-(methylamino)-N-(2-(tetrahydrofuran-2-yl)ethyl)pyrazolo[1,5-a]pyrimidine-3-carboxamide] | – | –
35 | 1000 to 10000 | – | – | < 50 | < 50 | CNc1cc(Nc2cccn(-c3cnco3)c2=O)nc2c(C(=O)N[C@@H]3CC[C@@H]3O)cnn12 [I-1018] | – | –
36 | < 200 | < 50 | < 50 | – | – | CNc1cc(Nc2cccc3ocnc23)nc2c(C(=O)N[C@H]3COC[C@H]3O)cnn12 [I-755] | – | –
